Target: T1, BgaP β-galactosidase
T1 construct: recombinant full-length, 675 amino acids (GenBank XED97098)
Experiment: inhibition of ONPG hydrolysis by purified enzyme, […] °C, pH […]; Lineweaver-Burk
Assay type: biochemical, Paenibacillus sp. 8

SMILES	Ki
OC[C@H]1OC(O)[C@H](O)[C@@H](O)[C@@H]1O (some centres unmarked) [glucose]	27.3 mM
OC[C@H]1OC(O)[C@H](O)[C@@H](O)[C@H]1O (some centres unmarked) [galactose]	6.99 mM

Reference: article PMC12095705, “Diversity and enzymatic activity of Polish beehive products microbiota, and characterization of a novel β-galactosidase from Paenibacillus sp. 8” (Scientific Reports, 2025)
